Measurements: publication PMC9603901, “Therapeutic Potential of Antimicrobial Peptide PN5 against Multidrug-Resistant E. coli and Anti-Inflammatory Activity in a Septic Mouse Model” (Microbiology Spectrum, 2022)
≈ marks a conversion by molar mass, not a printed value.

Legend:
RAW 264.7 cells [1] = test: IncuCyte Cytotox green time-dependent cytotoxicity; format: cell-based, mouse; settings: 25 μM
Protocol: An IncuCyte cytotoxicity assay (Essen BioScience, Inc., Ann Arbor, MI, USA) was performed to evaluate time-dependent cytotoxicity. RAW 264.7 cells (2 × 10^5 cells well^−1) were seeded into 96-well culture plates and then treated with peptides and IncuCyte Cytotox green reagent (Essen BioScience, Inc.). Up to 200 μM PN5 and 25 μM melittin were used to treat RAW 264.7 cells, with the concentrations serially diluted by half. […] The cells were stained with IncuCyte Cytotox green reagent. The viability was measured using IncuCyte software (Essen BioScience, Inc.) ([56]).

A. baumannii KCTC 2508 = format: cell-based, Acinetobacter baumannii; settings: microdilution, NB, 18 to 24 h, 37°C, three independent experiments
Protocol: (§1) Bacterial cells were cultured at 37°C in the appropriate culture media with shaking (180 rpm). Luria-Bertani broth (LB) (244620; BD Difco) was used for E. coli ATCC 25922, ASEC strains, and B. subtilis KCTC 2217. Nutrient broth (NB) (234000; BD Difco) was used for P. aeruginosa ATCC 27853, S. Typhimurium KCTC 1926, and A. baumannii KCTC 2508. Tryptic soy broth (TSB) (211825; BD Difco) was used for S. aureus ATCC 25923. Finally, brain heart infusion (BHI) (237500; BD Difco) was used for L. monocytogenes KCTC 3710. The antimicrobial activity of each peptide was determined using microdilution assays. To this end, 2-fold serial dilution series of each peptide (from 1 to 64 μM) were added to duplicate media with 10 mM sodium phosphate buffer (pH 7.4). Fifty microliters of the peptide and antibiotic solution was added to each well of a 96-well plate (32096, surface nontreatment; SPL Life Sciences). Then, 50 μL of 2 × 10^5 CFU mL^−1 of bacteria was added to each well, and the samples were incubated for 18 to 24 h without shaking at 37°C.

MDR E. coli ASEC 2 = test: microbe, parasite or virus in culture; format: cell-based, Escherichia coli; settings: microdilution, LB, 18 to 24 h, 37°C, three independent experiments
Protocol: as §1

MDR E. coli ASEC 3 = test: microbe, parasite or virus in culture; format: cell-based, Escherichia coli; settings: microdilution, LB, 18 to 24 h, 37°C, three independent experiments
Protocol: as §1

MDR E. coli ASEC 19 = test: microbe, parasite or virus in culture; format: cell-based, Escherichia coli; settings: microdilution, LB, 18 to 24 h, 37°C, three independent experiments
Protocol: as §1

MDR E. coli ASEC 15 = test: microbe, parasite or virus in culture; format: cell-based, Escherichia coli; settings: microdilution, LB, 18 to 24 h, 37°C, three independent experiments
Protocol: as §1

MDR E. coli ASEC 16 = test: microbe, parasite or virus in culture; format: cell-based, Escherichia coli; settings: microdilution, LB, 18 to 24 h, 37°C, three independent experiments
Protocol: as §1

MDR E. coli ASEC 10 = test: microbe, parasite or virus in culture; format: cell-based, Escherichia coli; settings: microdilution, LB, 18 to 24 h, 37°C, three independent experiments
Protocol: as §1

MDR E. coli ASEC 5 = test: microbe, parasite or virus in culture; format: cell-based, Escherichia coli; settings: microdilution, LB, 18 to 24 h, 37°C, three independent experiments
Protocol: as §1

MDR E. coli ASEC 17 = test: microbe, parasite or virus in culture; format: cell-based, Escherichia coli; settings: microdilution, LB, 18 to 24 h, 37°C, three independent experiments
Protocol: as §1

MDR E. coli ASEC 6 = test: microbe, parasite or virus in culture; format: cell-based, Escherichia coli; settings: microdilution, LB, 18 to 24 h, 37°C, three independent experiments
Protocol: as §1

MDR E. coli ASEC 14 = test: microbe, parasite or virus in culture; format: cell-based, Escherichia coli; settings: microdilution, LB, 18 to 24 h, 37°C, three independent experiments
Protocol: as §1

MDR E. coli ASEC 12 = test: microbe, parasite or virus in culture; format: cell-based, Escherichia coli; settings: microdilution, LB, 18 to 24 h, 37°C, three independent experiments
Protocol: as §1

MDR E. coli ASEC 13 = test: microbe, parasite or virus in culture; format: cell-based, Escherichia coli; settings: microdilution, LB, 18 to 24 h, 37°C, three independent experiments
Protocol: as §1

MDR E. coli ASEC 1 = test: microbe, parasite or virus in culture; format: cell-based, Escherichia coli; settings: microdilution, LB, 18 to 24 h, 37°C, three independent experiments
Protocol: as §1

MDR E. coli ASEC 18 = test: microbe, parasite or virus in culture; format: cell-based, Escherichia coli; settings: microdilution, LB, 18 to 24 h, 37°C, three independent experiments
Protocol: as §1

MDR E. coli ASEC 4 = test: microbe, parasite or virus in culture; format: cell-based, Escherichia coli; settings: microdilution, LB, 18 to 24 h, 37°C, three independent experiments
Protocol: as §1

MDR E. coli ASEC 9 = test: microbe, parasite or virus in culture; format: cell-based, Escherichia coli; settings: microdilution, LB, 18 to 24 h, 37°C, three independent experiments
Protocol: as §1

MDR E. coli ASEC 11 = test: microbe, parasite or virus in culture; format: cell-based, Escherichia coli; settings: microdilution, LB, 18 to 24 h, 37°C, three independent experiments
Protocol: as §1

MDR E. coli ASEC 8 = test: microbe, parasite or virus in culture; format: cell-based, Escherichia coli; settings: microdilution, LB, 18 to 24 h, 37°C, three independent experiments
Protocol: as §1

MDR E. coli ASEC 7 = test: microbe, parasite or virus in culture; format: cell-based, Escherichia coli; settings: microdilution, LB, 18 to 24 h, 37°C, three independent experiments
Protocol: as §1

mouse red blood cells = test: Hemolytic activity; format: cell-based; settings: 8% mouse red blood cells, 1 h, 37°C
Protocol: (§2) RAW 264.7 cells (mouse macrophage cells) were maintained in high-glucose Dulbecco’s modified Eagle medium (DMEM) (Welgene, Daegu, South Korea) supplemented with 10% fetal bovine serum (FBS) (Gibco) and 1% penicillin at 37°C in humidified 5% CO2. Cells (2 × 10^5 cells well^−1) were seeded into DMEM supplemented with 10% FBS medium in a 96-well plate. The MTT assay was performed after culturing the cells in 96-well plates at a density of 2 × 10^5 cells well^−1, followed by treatment with serially diluted PN5, magainin 2, and melittin. After 24 h, the medium was discarded, and 100 μL DMEM and 10% FBS medium containing 0.5 mg mL^−1 MTT were added to each well. After 4 h of incubation, the medium was discarded and dimethyl sulfoxide was added to each well to solubilize the formazan. The optical densities at 570 and 650 nm (OD570 and OD650, respectively) of the treated cells were compared to those of control cells. The hemolytic activity of the peptides was evaluated as the release of hemoglobin from an 8% mRBC suspension. A 100-μL aliquot of the 8% mRBC suspension was added to the wells of a 96-well plate, and 100 μL of peptide solution in phosphate-buffered saline (PBS) was added at a final peptide concentration of 200 μM. After incubation for 1 h at 37°C with shaking (50 rpm), the suspensions were centrifuged at 1,000 × g for 5 min. The absorbance of the supernatant was measured at 414 nm using a Versa Max microplate reader (Molecular Devices). As a control, no hemolysis and complete hemolysis were determined in PBS and 0.1% Triton X-100, respectively. The degree of hemolysis was calculated using the following equation as described in reference: %hemolysis=[(A414withpeptide-A414withPBS)/(A414with0.1%TritonX-100-A414 with PBS)] × 100

B. subtilis KCTC 2217 = format: cell-based, Bacillus subtilis; settings: microdilution, LB, 18 to 24 h, 37°C, three independent experiments
Protocol: as §1

[2] = tested on: L. monocytogenes KCTC 3710; format: cell-based, Listeria monocytogenes; settings: microdilution, BHI, 18 to 24 h, 37°C, three independent experiments
Protocol: as §1

S. Typhimurium KCTC 1926 = format: cell-based, Salmonella enterica serovar Typhimurium; settings: microdilution, NB, 18 to 24 h, 37°C, three independent experiments
Protocol: as §1

RAW 264.7 cells [3] = test: MTT cell viability; format: cell-based, mouse; settings: 24 h
Protocol: as §2

E. coli ATCC 25922 = test: NPN uptake, outer membrane permeability; format: cell-based, Escherichia coli; settings: E. coli ATCC 25922, 4× MIC, 60 min, 10 μM NPN, relative to 0.1% Triton X-100
Protocol: The ability of PN5 to permeate the outer bacterial membrane was determined based on the uptake of NPN, a fluorescent dye. Briefly, E. coli 25922 cells grown to the logarithmic phase at 37°C were harvested by centrifugation at 6,000 × g and 4°C for 10 min. The bacterial cells were washed twice with 5 mM HEPES buffer (pH 7.4) and resuspended to OD600 of 0.4. NPN was added to the bacterial suspension at a final concentration of 10 μM. Aliquots of the peptides were added to the bacterial suspensions. Background fluorescence was recorded using a fluorescence spectrophotometer. The excitation and emission wavelengths were set to 350 and 420 nm, respectively. The values were converted to percentage of NPN uptake using the equation % NPN uptake = [(Fobs − F0)/(F100 − F0)] × 100, where Fobs is the fluorescence observed at each peptide concentration, F0 is the initial fluorescence of NPN with E. coli in the absence of peptides, and F100 is the fluorescence of NPN upon the addition of 0.1% Triton X-100, which was used as a positive control ([57]).

P. aeruginosa ATCC 27853 = format: cell-based, Pseudomonas aeruginosa; settings: microdilution, NB, 18 to 24 h, 37°C, three independent experiments
Protocol: as §1

S. aureus ATCC 25923 = format: cell-based, Staphylococcus aureus; settings: microdilution, TSB, 18 to 24 h, 37°C, three independent experiments
Protocol: as §1

Row | Compound | MIC (A. baumannii KCTC 2508) | MIC (MDR E. coli ASEC 2) | MIC (MDR E. coli ASEC 3) | MIC (MDR E. coli ASEC 15) | MIC (MDR E. coli ASEC 16) | MIC (MDR E. coli ASEC 10) | MIC (MDR E. coli ASEC 5) | MIC (MDR E. coli ASEC 6) | MIC (MDR E. coli ASEC 14) | MIC (MDR E. coli ASEC 12) | MIC (MDR E. coli ASEC 13) | MIC (MDR E. coli ASEC 1) | MIC (MDR E. coli ASEC 18) | MIC (MDR E. coli ASEC 9) | MIC (MDR E. coli ASEC 11) | MIC (MDR E. coli ASEC 8) | MIC (MDR E. coli ASEC 7) | MIC (B. subtilis KCTC 2217) | also measured
1 | CC[C@H](C)[C@H](NC(=O)CN)C(=O)NCC(=O)N[C@@H](C)C(=O)N[C@H](C(=O)N[C@@H](CC(C)C)C(=O)N[C@@H](CCCCN)C(=O)N[C@H](C(=O)N[C@@H](CC(C)C)C(=O)N[C@H](C(=O)N[C@H](C(=O)NCC(=O)N[C@@H](CC(C)C)C(=O)N1CCC[C@H]1C(=O)N[C@@H](C)C(=O)N[C@@H](CC(C)C)C(=O)N[C@H](C(=O)N[C@@H](CO)C(=O)N[C@@H](Cc1c[nH]c2ccccc12)C(=O)N[C@H](C(=O)N[C@@H](CCCCN)C(=O)N[C@@H](CCCNC(=N)N)C(=O)N[C@@H](CCCCN)C(=O)N[C@@H](CCCNC(=N)N)C(=O)N[C@@H](CCC(N)=O)C(=O)N[C@@H](CCC(N)=O)C(N)=O)[C@@H](C)CC)[C@@H](C)CC)[C@@H](C)O)[C@@H](C)O)C(C)C)C(C)C [Melittin] | 2 µM | 4 (11.39) μM | 4 (11.39) μM | 4 (11.39) μM | 4 (11.39) μM | 4 (11.39) μM | 2 (5.69) μM | 4 (11.39) μM | 2 (5.69) μM | 4 (11.39) μM | 4 (11.39) μM | 4 (11.39) μM | 4 (11.39) μM | 4 (11.39) μM | 4 (11.39) μM | 4 (11.39) μM | 4 (11.39) μM | 2 µM | cytotoxicity, Cytotox green fluorescence (RAW 264.7 cells [1]): immediately damaged the cells; MIC (MDR E. coli ASEC 19): 8 (22.77) μM; MIC (MDR E. coli ASEC 17): 8 (22.77) μM; MIC (MDR E. coli ASEC 4): 8 (22.77) μM; hemolysis (mouse red blood cells; 3.125 μM, PBS, A414, mean of three experiments): 44.02%; hemolysis (mouse red blood cells; 6.25 μM): 77.24%; MIC [2]: 4 µM (≈ 11.4 µg/mL); MIC (S. Typhimurium KCTC 1926): 4 µM (≈ 11.4 µg/mL); toxicity, MTT assay (RAW 264.7 cells [3]; 6.25 μM): over 50%
2 | Magainin 2 | 19.74 µg/mL | 8 (19.74) μM | 16 (39.47) μM | 16 (39.47) μM | 8 (19.74) μM | 16 (39.47) μM | 16 (39.47) μM | 4 (9.87) μM | 4 (9.87) μM | 16 (39.47) μM | 16 (39.47) μM | 16 (39.47) μM | 16 (39.47) μM | 8 (19.74) μM | 16 (39.47) μM | 16 (39.47) μM | 8 (19.74) μM | 39.47 µg/mL | NPN uptake (E. coli ATCC 25922): 35.7%; MIC (P. aeruginosa ATCC 27853): 32 µM; toxicity, MTT assay (RAW 264.7 cells [3]; 200 μM): over 50%; MIC (S. aureus ATCC 25923): 39.47 µg/mL
